Reference: patent US8481544B2, “Antibacterial compositions” (Biota Europe Limited, priority 2006, dated 2013)
Converted amounts (≈) assume the structure as drawn.

Each compound was assayed on Enterococcus faecalis ATCC 29212 (assay: MIC against Enterococcus faecalis ATCC 29212). Conditions: ATCC29212; Enterococcus faecalis ATCC 29212; read-out: MICs against Enterococcus faecalis, Activity.
Type: cell-based
Method: Institute. Methods for Dilution Antimicrobial Susceptibility Tests for Bacteria That Grow Aerobically; Approved Standard—Seventh Edition. Document M7-A7. CLSI, Wayne, Pa., 2006; Clinical Laboratories and Standards Institute. Methods for Antimicrobial Susceptibility Testing of Anaerobic Bacteria; Approved Standard—Sixth Edition. Document M11-A6. CLSI, Wayne, Pa., 2004).
Compounds of this invention were tested for antimicrobial activity by susceptibility testing in liquid or on solid media. MICs for compounds against each strain were determined by the broth microdilution or agar dilution method according to the guidelines of the Clinical Laboratories and Standards Institute, formerly the National Committee for Clinical Laboratory Standards (Clinical Laboratories and Standards Institute. Methods for Dilution Antimicrobial Susceptibility Tests for Bacteria That Grow Aerobically; Approved Standard—Seventh Edition. Document M7-A7. CLSI, Wayne, Pa., 2006; Clinical Laboratories and Standards Institute. Methods for Antimicrobial Susceptibility Testing of Anaerobic Bacteria; Approved Standard—Sixth Edition. Document M11-A6. CLSI, Wayne, Pa., 2004).

MIC	SMILES
< 0.25 µg/mL	CCNC(=O)Nc1nc2cc(-c3cccnc3)cc(-c3cccc(C)n3)c2s1 [Example 177, 1-Ethyl-3-[7-(6-methyl-pyridin-2-yl)-5-pyridin-3-yl-benzothiazol-2-yl]-urea]
2 to 16 µg/mL (≈ 5.12 to 41 µM)	CCNC(=O)Nc1nc2cc(-c3ccc(C)nn3)cc(-c3cccnc3)c2s1 [Example 46, 1-Ethyl-3-[5-(6-methyl-pyridazin-3-yl)-7-pyridin-3-yl-benzothiazol-2-yl]-urea]
0.25 to 1 µg/mL (≈ 0.597 to 2.39 µM)	CCNC(=O)Nc1nc2cc(-c3cccnc3)cc(-c3cc(N(C)C)ccn3)c2s1 [Example 169, 1-[7-(4-Dimethylamino-pyridin-2-yl)-5-pyridin-3-yl-benzothiazol-2-yl]-3-ethyl-urea]
< 0.25 µg/mL	CCNC(=O)Nc1nc2cc(-c3cncc(OC)c3)cc(-c3ccccn3)c2s1 [Example 179, 1-Ethyl-3-[5-(5-methoxy-pyridin-3-yl)-7-pyridin-2-yl-benzothiazol-2-yl]-urea]
0.25 to 1 µg/mL (≈ 0.615 to 2.46 µM)	CCNC(=O)Nc1nc2cc(-c3cccnc3)cc(-c3ccc(OC)nn3)c2s1 [Example 105, 1-Ethyl-3-[7-(6-methoxy-pyridazin-3-yl)-5-pyridin-3-yl-benzothiazol-2-yl]-urea]
< 0.25 µg/mL	CCNC(=O)Nc1nc2cc(-c3cccnc3)cc(-c3cc(OC)ncn3)c2s1 [Example 122, 1-Ethyl-3-[7-(6-methoxy-pyrimidin-4-yl)-5-pyridin-3-yl-benzothiazol-2-yl]-urea]
0.25 to 1 µg/mL (≈ 0.617 to 2.47 µM)	CCNC(=O)Nc1nc2cc(-c3ccc(CO)nc3)cc(-c3cccnc3)c2s1 [Example 19, 1-Ethyl-3-[5-(6-hydroxymethyl-pyridin-3-yl)-7-pyridin-3-yl-benzothiazol-2-yl]-urea]
< 0.25 µg/mL	CCNC(=O)Nc1nc2cc(-c3cccnc3)cc(-c3ccc(CO)cn3)c2s1 [Example 96, 1-Ethyl-3-[7-(5-hydroxymethyl-pyridin-2-yl)-5-pyridin-3-yl-benzothiazol-2-yl]-urea]
0.25 to 1 µg/mL (≈ 0.618 to 2.47 µM)	CCNC(=O)Nc1nc2cc(-c3cccnc3)cc(-c3ccc(OC)cc3)c2s1 [Example 84, 1-Ethyl-3-[7-(4-methoxy-phenyl)-5-pyridin-3-yl-benzothiazol-2-yl]-urea]
0.25 to 1 µg/mL (≈ 0.618 to 2.47 µM)	CCNC(=O)Nc1nc2cc(-c3cccnc3)cc(-c3cccc(OC)c3)c2s1 [Example 86, 1-Ethyl-3-[7-(3-methoxy-phenyl)-5-pyridin-3-yl-benzothiazol-2-yl]-urea]
0.25 to 1 µg/mL (≈ 0.617 to 2.47 µM)	CCNC(=O)Nc1nc2cc(-c3cncc(OC)c3)cc(-c3cccnc3)c2s1 [Example 31, 1-Ethyl-3-[5-(5-methoxy-pyridin-3-yl)-7-pyridin-3-yl-benzothiazol-2-yl]-urea]
0.25 to 1 µg/mL (≈ 0.624 to 2.5 µM)	CCNC(=O)Nc1nc2cc(-c3cncc(C#N)c3)cc(-c3cccnc3)c2s1 [Example 24, 1-[5-(5-Cyano-pyridin-3-yl)-7-pyridin-3-yl-benzothiazol-2-yl]-3-ethyl-urea]
0.25 to 1 µg/mL (≈ 0.664 to 2.66 µM)	CCNC(=O)Nc1nc2cc(-c3cncnc3)cc(-c3cccnc3)c2s1 [Example 13, 1-Ethyl-3-(7-pyridin-3-yl-5-pyrimidin-5-yl-benzothiazol-2-yl)-urea]

Continued, compound first:

SMILES	MIC
CCNC(=O)Nc1nc2cc(-c3cccnc3)cc(N)c2s1 [Example 149, 1-(7-Amino-5-pyridin-3-yl-benzothiazol-2-yl)-3-ethyl-urea]	2 to 16 µg/mL (≈ 6.38 to 51.1 µM)
CCNC(=O)Nc1nc2cc(-c3cccnc3)cc(-c3csc(O)n3)c2s1 [Example 172, 1-Ethyl-3-[7-(2-hydroxy-thiazol-4-yl)-5-pyridin-3-yl-benzothiazol-2-yl]-urea]	2 to 16 µg/mL (≈ 5.03 to 40.3 µM)
CCNC(=O)Nc1nc2cc(-n3ccnc3)cc(-c3ccccn3)c2s1 [Example 142, 1-Ethyl-3-(5-imidazol-1-yl-7-pyridin-2-yl-benzothiazol-2-yl)-urea]	< 0.25 µg/mL
CCNC(=O)Nc1nc2cc(-c3cncc(N4CCN(C)CC4)c3)cc(-c3ccccn3)c2s1 [Example 62, 1-Ethyl-3-{5-[5-(4-methyl-piperazin-1-yl)-pyridin-3-yl]-7-pyridin-2-yl-benzothiazol-2-yl}-urea]	0.25 to 1 µg/mL (≈ 0.528 to 2.11 µM)
CCNC(=O)Nc1nc2cc(-c3ccn(CCN(C)C)c(=O)c3)cc(-c3ccccn3)c2s1 [Example 72, 1-{5-[1-(2-Dimethylamino-ethyl)-2-oxo-1,2-dihydro-pyridin-4-yl]-7-pyridin-2-yl-benzothiazol-2-yl}-3-ethyl-urea]	0.25 to 1 µg/mL (≈ 0.54 to 2.16 µM)
CCNC(=O)Nc1nc2cc(Br)cc(-c3cccnc3)c2s1 [Example 2, 1-(5-Bromo-7-pyridin-3-yl-benzothiazol-2-yl)-3-ethyl-urea]	2 to 16 µg/mL (≈ 5.3 to 42.4 µM)
CCNC(=O)Nc1nc2cc(-c3cnn(C)c3)cc(Br)c2s1 [Example 6, 1-[7-Bromo-5-(1-methyl-1H-pyrazol-4-yl)-benzothiazol-2-yl]-3-ethyl-urea]	0.25 to 1 µg/mL (≈ 0.657 to 2.63 µM)
CCNC(=O)Nc1nc2cc(-c3cccnc3)cc(-c3ncccc3C(F)(F)F)c2s1 [Example 128, 1-Ethyl-3-[5-pyridin-3-yl-7-(3-trifluoromethyl-pyridin-2-yl)-benzothiazol-2-yl]-urea]	0.25 to 1 µg/mL (≈ 0.564 to 2.26 µM)
CCNC(=O)Nc1nc2cc(-c3ccn(CCN4CCOCC4)c(=O)c3)cc(-c3ccccn3)c2s1 [Example 63, 1-Ethyl-3-{5-[1-(2-morpholin-4-yl-ethyl)-2-oxo-1,2-dihydro-pyridin-4-yl]-7-pyridin-2-yl-benzothiazol-2-yl}-urea]	0.25 to 1 µg/mL (≈ 0.495 to 1.98 µM)
CCNC(=O)Nc1nc2cc(-c3ccc(CCO)nc3)cc(-c3ccccn3)c2s1 [Example 58, 1-Ethyl-3-{5-[6-(2-hydroxy-ethyl)-pyridin-3-yl]-7-pyridin-2-yl-benzothiazol-2-yl}-urea]	< 0.25 µg/mL
CCNC(=O)Nc1nc2cc(-c3ccc(CN(CCOC)CCOC)nc3)cc(-c3ccccn3)c2s1 [Example 60, 1-[5-(6-{[Bis-(2-methoxy-ethyl)-amino]-methyl}-pyridin-3-yl)-7-pyridin-2-yl-benzothiazol-2-yl]-3-ethyl-urea]	0.25 to 1 µg/mL (≈ 0.48 to 1.92 µM)
CCNC(=O)Nc1nc2cc(-c3cccnc3)cc(C(=O)NN)c2s1 [Example 153, 1-Ethyl-3-(7-hydrazinocarbonyl-5-pyridin-3-yl-benzothiazol-2-yl)-urea]	2 to 16 µg/mL (≈ 5.61 to 44.9 µM)
CCNC(=O)Nc1nc2cc(-c3ccc(N4CCN(C)CC4)nc3)cc(-c3cccnc3)c2s1 [Example 23, 1-Ethyl-3-{5-[6-(4-methyl-piperazin-1-yl)-pyridin-3-yl]-7-pyridin-3-yl-benzothiazol-2-yl}-urea]	2 to 16 µg/mL (≈ 4.22 to 33.8 µM)
CCNC(=O)Nc1nc2cc(-c3cccnc3)cc(-c3ccnc(N)n3)c2s1 [Example 114, 1-[7-(2-Amino-pyrimidin-4-yl)-5-pyridin-3-yl-benzothiazol-2-yl]-3-ethyl-urea]	< 0.25 µg/mL
CCNC(=O)Nc1nc2cc(-c3ccc(NC(C)=O)nc3)cc(-c3ccc(N)cn3)c2s1 [Example 135, N-{5-[7-(5-Amino-pyridin-2-yl)-2-(3-ethyl-ureido)-benzothiazol-5-yl]-pyridin-2-yl}-acetamide]	0.25 to 1 µg/mL (≈ 0.559 to 2.23 µM)
CCNC(=O)Nc1nc2cc(-c3cccnc3)cc(-c3cnn(CCN4CCOCC4)c3)c2s1 [Example 81, 1-Ethyl-3-{7-[1-(2-morpholin-4-yl-ethyl)-1H-pyrazol-4-yl]-5-pyridin-3-yl-benzothiazol-2-yl}-urea]	2 to 16 µg/mL (≈ 4.19 to 33.5 µM)
CCNC(=O)Nc1nc2cc(-c3cnc4c(c3)CCC(=O)N4)cc(-c3ccccn3)c2s1 [Example 71, 1-Ethyl-3-[5-(7-oxo-5,6,7,8-tetrahydro-[1,8]naphthyridin-3-yl)-7-pyridin-2-yl-benzothiazol-2-yl]-urea]	< 0.25 µg/mL
CCNC(=O)Nc1nc2cc(-c3cccnc3)cc(C(=O)NCC)c2s1 [Example 152, 2-(3-Ethyl-ureido)-5-pyridin-3-yl-benzothiazole-7-carboxylic acid ethylamide]	2 to 16 µg/mL (≈ 5.41 to 43.3 µM)
CCNC(=O)Nc1nc2cc(-c3cnc(N)nc3)cc(-c3cccnc3)c2s1 [Example 14, 1-[5-(2-Amino-pyrimidin-5-yl)-7-pyridin-3-yl-benzothiazol-2-yl]-3-ethyl-urea]	0.25 to 1 µg/mL (≈ 0.639 to 2.55 µM)
CCNC(=O)Nc1nc2cc(-c3ccc(NC(C)=O)nc3)cc(-c3ccc(NC(C)=O)nc3)c2s1 [Example 148, N-{5-[7-(6-Acetylamino-pyridin-3-yl)-2-(3-ethyl-ureido)-benzothiazol-5-yl]-pyridin-2-yl}-acetamide]	0.25 to 1 µg/mL (≈ 0.511 to 2.04 µM)
CCNC(=O)Nc1nc2cc(-n3ccccc3=O)cc(-c3cccnc3)c2s1 [Example 141, 1-Ethyl-3-[5-(2-oxo-2H-pyridin-1-yl)-7-pyridin-3-yl-benzothiazol-2-yl]-urea]	2 to 16 µg/mL (≈ 5.11 to 40.9 µM)
CCNC(=O)Nc1nc2cc(-c3cnc4c(c3)CNCC4)cc(-c3ccccn3)c2s1 [Example 65, 1-Ethyl-3-[7-pyridin-2-yl-5-(5,6,7,8-tetrahydro-[1,6]naphthyridin-3-yl)-benzothiazol-2-yl]-urea]	0.25 to 1 µg/mL (≈ 0.581 to 2.32 µM)
CCNC(=O)Nc1nc2cc(-c3ccc(NC(C)=O)nc3)cc(-c3cnccn3)c2s1 [Example 134, N-{5-[2-(3-Ethyl-ureido)-7-pyrazin-2-yl-benzothiazol-5-yl]-pyridin-2-yl}-acetamide]	< 0.25 µg/mL
CCNC(=O)Nc1nc2cc(-c3cccnc3)cc(C(=O)OC)c2s1 [Example 151, 2-(3-Ethyl-ureido)-5-pyridin-3-yl-benzothiazole-7-carboxylic acid methyl ester]	0.25 to 1 µg/mL (≈ 0.701 to 2.81 µM)
CCNC(=O)Nc1nc2cc(-c3cnc(N)nc3)cc(-c3cnc(N)nc3)c2s1 [Example 145, 1-[5,7-Bis-(2-amino-pyrimidin-5-yl)-benzothiazol-2-yl]-3-ethyl-urea]	2 to 16 µg/mL (≈ 4.91 to 39.3 µM)

Same assay, conditions: Enterococcus faecalis, ATCC29212; ATCC 29212; Table 5; read-out: MIC against Enterococcus faecalis (Activity)

MIC	SMILES
0.25 to 1 µg/mL (≈ 0.661 to 2.64 µM)	CCNC(=O)Nc1nc2cc(-c3cnccn3)nc(-c3cnccn3)c2s1 [Example 181, 1-(4,6-di(pyrazin-2-yl)thiazolo[5,4-c]pyridin-2-yl)-3-ethylurea]
